Measurements: PMC8258697 (The Journal of Biological Chemistry, 2021)
Substitutions are numbered along the chain they refer to.

Legend:
[1] = test system: PPARγ LBD; experiment: Two-dimensional titration of SR11237 and unlabeled mutant RXRα LBD: CBP-1 recruitment by sGFP-PPARγ LBD (HTRF); type: biochemical, human;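 for HTRF mean; N=2: mutant RXRα LBD carries mutations that block its own coactivator recruitment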
[2] = target: T1, PPARγ:RXRα heterodimer (Homo sapiens, UniProt P19793+P37231); experiment: PPARγ:RXRα heterodimer formation HTRF assay, sGFP-RXRα LBD titrated against biotinylated PPARγ LBD coupled to Tb-SA; type: binding; settings: 10 μM ligand compared with no ligand
T1 construct: His10-tag with TEV site (N, cleaved yes); made in house; host or cells: E. coli T7 express (co-expressed with GroEL/ES)
T1 sequence (P37231 234-505): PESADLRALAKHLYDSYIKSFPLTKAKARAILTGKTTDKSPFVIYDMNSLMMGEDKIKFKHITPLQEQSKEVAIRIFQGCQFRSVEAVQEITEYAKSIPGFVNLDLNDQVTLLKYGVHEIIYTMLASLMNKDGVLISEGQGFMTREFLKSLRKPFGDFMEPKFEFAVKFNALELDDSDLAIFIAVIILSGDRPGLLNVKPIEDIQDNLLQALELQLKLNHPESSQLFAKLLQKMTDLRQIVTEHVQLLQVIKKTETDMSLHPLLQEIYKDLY
T1 sequence (P19793 226-462): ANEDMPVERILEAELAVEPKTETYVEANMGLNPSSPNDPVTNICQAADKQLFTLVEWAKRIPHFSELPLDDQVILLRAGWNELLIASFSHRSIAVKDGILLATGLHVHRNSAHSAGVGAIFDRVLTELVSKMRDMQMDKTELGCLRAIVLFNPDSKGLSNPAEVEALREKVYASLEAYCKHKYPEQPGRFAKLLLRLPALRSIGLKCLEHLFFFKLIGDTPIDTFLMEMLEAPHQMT

[3] = target: T2, RXRα LBD total mutant (Homo sapiens, UniProt P19793, E453R/F450Y/K284E/V280T/V298T); experiment: Coactivator recruitment HTRF assay on isolated RXRα LBD total mutant (SRC1-2 peptide); type: biochemical; settings: 100 nM sGFP-RXRα LBD total mutant
T2 construct: His10-tag with TEV site (N, cleaved yes); made in house; host or cells: E. coli T7 express (co-expressed with GroEL/ES)
T2 sequence (P19793 226-462 V280T/K284E/V298T/F450Y/E453R): T1 sequence (P19793 226-462) with V55T, K59E, V73T, F225Y, E228R

[4] = target: T3, RXRα homodimer (Homo sapiens, UniProt P19793); experiment: RXRα homodimer formation HTRF assay, sGFP-RXRα LBD titrated against biotinylated RXRα LBD (wildtype); type: binding; settings: 10 μM ligand compared with no ligand
T3 construct: His10-tag with TEV site (N, cleaved yes); made in house; host or cells: E. coli T7 express (co-expressed with GroEL/ES)
T3 sequence (P19793 226-462) 1: T1 sequence (P19793 226-462)
T3 sequence (P19793 226-462) 2: T1 sequence (P19793 226-462)

[5] = target: T4, PPARγ LBD (Homo sapiens, UniProt P37231); experiment: Monomer cofactor recruitment HTRF assay: CBP-1 recruitment by isolated sGFP-PPARγ LBD; type: biochemical; settings: titrated alone, or constant 10 μM against titrated rosiglitazone
T4 construct: His10-tag with TEV site (N, cleaved yes); made in house; host or cells: E. coli T7 express (co-expressed with GroEL/ES)
T4 sequence (P37231 234-505): T1 sequence (P37231 234-505)

## CC1(C)CCC(C)(C)c2cc(C3(c4ccc(C(=O)O)cc4)OCCO3)ccc21 [SR11237]
[1]; SR11237 0.268435 nM, RXRα mutant LBD 0.976562 nM
  HTRF mean; N=2: 7866
[1]; SR11237 0.268435 nM, RXRα mutant LBD 1.95312 nM
  HTRF mean; N=2: 7838
[1]; SR11237 0.268435 nM, RXRα mutant LBD 3.90625 nM
  HTRF mean; N=2: 7920
[1]; SR11237 0.268435 nM, RXRα mutant LBD 7.8125 nM
  HTRF mean; N=2: 7909
[1]; SR11237 0.268435 nM, RXRα mutant LBD 31.25 nM
  HTRF mean; N=2: 7903
[1]; SR11237 0.268435 nM, RXRα mutant LBD 62.5 nM
  HTRF mean; N=2: 8248
[1]; SR11237 0.268435 nM, RXRα mutant LBD 250 nM
  HTRF mean; N=2: 8688
[1]; SR11237 0.268435 nM, RXRα mutant LBD 500 nM
  HTRF mean; N=2: 8760
[1]; SR11237 0.268435 nM, RXRα mutant LBD 1000 nM
  HTRF mean; N=2: 8782
[1]; SR11237 0.671089 nM, RXRα mutant LBD 0.976562 nM
  HTRF mean; N=2: 8003
[1]; SR11237 0.671089 nM, RXRα mutant LBD 1.95312 nM
  HTRF mean; N=2: 7881
[1]; SR11237 0.671089 nM, RXRα mutant LBD 3.90625 nM
  HTRF mean; N=2: 7929
[1]; SR11237 0.671089 nM, RXRα mutant LBD 7.8125 nM
  HTRF mean; N=2: 7967
[1]; SR11237 0.671089 nM, RXRα mutant LBD 31.25 nM
  HTRF mean; N=2: 8123
[1]; SR11237 0.671089 nM, RXRα mutant LBD 62.5 nM
  HTRF mean; N=2: 8262
[1]; SR11237 0.671089 nM, RXRα mutant LBD 250 nM
  HTRF mean; N=2: 8624
[1]; SR11237 0.671089 nM, RXRα mutant LBD 500 nM
  HTRF mean; N=2: 8662
[1]; SR11237 0.671089 nM, RXRα mutant LBD 1000 nM
  HTRF mean; N=2: 8739
[1]; SR11237 1.67772 nM, RXRα mutant LBD 0.976562 nM
  HTRF mean; N=2: 7886
[1]; SR11237 1.67772 nM, RXRα mutant LBD 1.95312 nM
  HTRF mean; N=2: 7834
[1]; SR11237 1.67772 nM, RXRα mutant LBD 3.90625 nM
  HTRF mean; N=2: 7842
[1]; SR11237 1.67772 nM, RXRα mutant LBD 7.8125 nM
  HTRF mean; N=2: 7973
[1]; SR11237 1.67772 nM, RXRα mutant LBD 31.25 nM
  HTRF mean; N=2: 8258
[1]; SR11237 1.67772 nM, RXRα mutant LBD 62.5 nM
  HTRF mean; N=2: 8301
[1]; SR11237 1.67772 nM, RXRα mutant LBD 250 nM
  HTRF mean; N=2: 8705
[1]; SR11237 1.67772 nM, RXRα mutant LBD 500 nM
  HTRF mean; N=2: 8706
[1]; SR11237 1.67772 nM, RXRα mutant LBD 1000 nM
  HTRF mean; N=2: 8875
[1]; SR11237 10.4858 nM, RXRα mutant LBD 0.976562 nM
  HTRF mean; N=2: 7841
[1]; SR11237 10.4858 nM, RXRα mutant LBD 1.95312 nM
  HTRF mean; N=2: 7813
[1]; SR11237 10.4858 nM, RXRα mutant LBD 3.90625 nM
  HTRF mean; N=2: 7835
[1]; SR11237 10.4858 nM, RXRα mutant LBD 7.8125 nM
  HTRF mean; N=2: 7963
[1]; SR11237 10.4858 nM, RXRα mutant LBD 31.25 nM
  HTRF mean; N=2: 8186
[1]; SR11237 10.4858 nM, RXRα mutant LBD 62.5 nM
  HTRF mean; N=2: 8299
[1]; SR11237 10.4858 nM, RXRα mutant LBD 250 nM
  HTRF mean; N=2: 8710
[1]; SR11237 10.4858 nM, RXRα mutant LBD 500 nM
  HTRF mean; N=2: 8818
[1]; SR11237 10.4858 nM, RXRα mutant LBD 1000 nM
  HTRF mean; N=2: 8916
[1]; SR11237 26.2144 nM, RXRα mutant LBD 0.976562 nM
  HTRF mean; N=2: 7919
[1]; SR11237 26.2144 nM, RXRα mutant LBD 1.95312 nM
  HTRF mean; N=2: 7957
[1]; SR11237 163.84 nM, RXRα mutant LBD 0.976562 nM
  HTRF mean; N=2: 7969
[1]; SR11237 163.84 nM, RXRα mutant LBD 1.95312 nM
  HTRF mean; N=2: 7882
[1]; SR11237 163.84 nM, RXRα mutant LBD 3.90625 nM
  HTRF mean; N=2: 7848
[1]; SR11237 163.84 nM, RXRα mutant LBD 7.8125 nM
  HTRF mean; N=2: 7981
[1]; SR11237 163.84 nM, RXRα mutant LBD 31.25 nM
  HTRF mean; N=2: 8037
[1]; SR11237 163.84 nM, RXRα mutant LBD 62.5 nM
  HTRF mean; N=2: 8496
[1]; SR11237 163.84 nM, RXRα mutant LBD 250 nM
  HTRF mean; N=2: 9360
[1]; SR11237 163.84 nM, RXRα mutant LBD 500 nM
  HTRF mean; N=2: 9174
[1]; SR11237 163.84 nM, RXRα mutant LBD 1000 nM
  HTRF mean; N=2: 9009
[1]; SR11237 1024 nM, RXRα mutant LBD 1.95312 nM
  HTRF mean; N=2: 7904
[1]; SR11237 1024 nM, RXRα mutant LBD 3.90625 nM
  HTRF mean; N=2: 7933
[1]; SR11237 1024 nM, RXRα mutant LBD 7.8125 nM
  HTRF mean; N=2: 8096
[1]; SR11237 1024 nM, RXRα mutant LBD 31.25 nM
  HTRF mean; N=2: 8413
[1]; SR11237 1024 nM, RXRα mutant LBD 62.5 nM
  HTRF mean; N=2: 8597
[1]; SR11237 1024 nM, RXRα mutant LBD 250 nM
  HTRF mean; N=2: 9475
[1]; SR11237 1024 nM, RXRα mutant LBD 500 nM
  HTRF mean; N=2: 9672
[1]; SR11237 1024 nM, RXRα mutant LBD 1000 nM
  HTRF mean; N=2: 9907
[1]; SR11237 16000 nM, RXRα mutant LBD 0.976562 nM
  HTRF mean; N=2: 8373
[1]; SR11237 16000 nM, RXRα mutant LBD 1.95312 nM
  HTRF mean; N=2: 8383
[1]; SR11237 16000 nM, RXRα mutant LBD 3.90625 nM
  HTRF mean; N=2: 8482
[1]; SR11237 16000 nM, RXRα mutant LBD 7.8125 nM
  HTRF mean; N=2: 8492
[1]; SR11237 16000 nM, RXRα mutant LBD 31.25 nM
  HTRF mean; N=2: 8658
[1]; SR11237 16000 nM, RXRα mutant LBD 62.5 nM
  HTRF mean; N=2: 9133
[1]; SR11237 16000 nM, RXRα mutant LBD 250 nM
  HTRF mean; N=2: 9981
[1]; SR11237 16000 nM, RXRα mutant LBD 500 nM
  HTRF mean; N=2: 10090
[1]; SR11237 16000 nM, RXRα mutant LBD 1000 nM
  HTRF mean; N=2: 10256
[1]; SR11237 100000 nM, RXRα mutant LBD 0.976562 nM
  HTRF mean; N=2: 8525
[1]; SR11237 100000 nM, RXRα mutant LBD 1.95312 nM
  HTRF mean; N=2: 8620
[1]; SR11237 100000 nM, RXRα mutant LBD 3.90625 nM
  HTRF mean; N=2: 8706
[1]; SR11237 100000 nM, RXRα mutant LBD 7.8125 nM
  HTRF mean; N=2: 8679
[1]; SR11237 100000 nM, RXRα mutant LBD 31.25 nM
  HTRF mean; N=2: 8875
[1]; SR11237 100000 nM, RXRα mutant LBD 62.5 nM
  HTRF mean; N=2: 9423
[1]; SR11237 100000 nM, RXRα mutant LBD 250 nM
  HTRF mean; N=2: 9880
[1]; SR11237 100000 nM, RXRα mutant LBD 500 nM
  HTRF mean; N=2: 10045
[1]; SR11237 100000 nM, RXRα mutant LBD 1000 nM
  HTRF mean; N=2: 9921
[1]; SR11237 […], RXRα mutant LBD 0.976562 nM
  HTRF mean; N=2: 8114
[1]; SR11237 […], RXRα mutant LBD 1.95312 nM
  HTRF mean; N=2: 8140
[1]; SR11237 […], RXRα mutant LBD 3.90625 nM
  HTRF mean; N=2: 8154
[1]; SR11237 […], RXRα mutant LBD 7.8125 nM
  HTRF mean; N=2: 8229
[1]; SR11237 […], RXRα mutant LBD 31.25 nM
  HTRF mean; N=2: 8421
[1]; SR11237 […], RXRα mutant LBD 62.5 nM
  HTRF mean; N=2: 8922
[1]; SR11237 […], RXRα mutant LBD 250 nM
  HTRF mean; N=2: 9616
[1]; SR11237 […], RXRα mutant LBD 500 nM
  HTRF mean; N=2: 9926
[1]; SR11237 […], RXRα mutant LBD 1000 nM
  HTRF mean; N=2: 9869
[1]; other factor (RXRα or SR11237) present at ≤1 nM
  CBP-1 recruitment relative to that seen with rosiglitazone: ≤ 5%
[2]
  effect on PPARγ:RXRα heterodimer formation: significant stabilizing effect
[3]
  stimulation of SRC1-2 coactivator recruitment: no stimulation of coactivator recruitment was observed
[4]
  effect on RXRα homodimer formation: significantly destabilized the homodimer
[5]
  effect on CBP-1 recruitment by isolated PPARγ LBD: neither activated recruitment of CBP-1 by PPARγ nor impaired rosiglitazone-mediated recruitment
